These results are taken from US9238005B2, “Dry powder formulations and methods for treating pulmonary diseases” (Pulmatrix Operating Company, Inc., priority 2009, dated 2016).

Data set [1] in a line: Volume median geometric diameter (x50/VMGD) and GSD by laser diffraction, HELOS/RODOS. In kind it is physicochemical.
Description: Volume median diameter (×50), which may also be referred to as volume median geometric diameter (VMGD), was determined using a laser diffraction technique. […] The RODOS disperser applies a shear force to a sample of particles, controlled by the regulator pressure (typically set at 1.0 bar with orifice ring pressure set at 7 mbar) of the incoming compressed dry air. […] The dispersed particles travel through a laser beam where the resulting diffracted light pattern produced is collected, typically using an R2 lens, by a series of detectors.
The nature of data set [2]: Fine particle fraction, two-stage collapsed Andersen Cascade Impactor (ACI-2). Conditions: spray dried from 70% ethanol, 50 g/L.
Data set [3] in a line: Heat of solution in HBSS buffer. The format is physicochemical. To be noted: Avg.; for ΔH (kJ/mol) / ΔH (kcal/mol): HBSS buffer, per mol Ca, leucine per mol Leu; for Q / ΔT (deg. C): dissolution in HBSS buffer.
Data set [4] in a line: Dispersibility from passive dry powder inhalers (CEPM, Dv50, FPF vs inhalation energy). In kind it is physicochemical. Conditions: for average CEPM, share of capsule fill weight: 9.2 Joules (60 L/min for 2 L); for average Dv50: 9.2 Joules; for Dv50: measured lower energies. As to the method:
The dispersibility of various powder formulations was investigated by measuring the geometric particle size and the percentage of powder emitted from capsules when inhaling on dry powder inhalers with flow rates representative of patient use. The particle size distribution and weight change of the filled capsules were measured for multiple powder formulations as a function of flow rate, inhaled volume and fill weight in 2 passive dry powder inhalers.
In order to relate the dispersion of powder at different flow rates, volumes, and from inhalers of different resistances, the energy required to perform the inhalation maneuver was calculated and the particle size and dose emission data plotted against the inhalation energy. Inhalation energy was calculated as E=R^2Q^2V where E is the inhalation energy in Joules, R is the inhaler resistance in kPa^1/2/LPM, Q is the steady flow rate in L/min and V is the inhaled air volume in L.

Where [5] appears, read: high resistance RS-01, 25 mg fill weight.
The mark [6] stands for this setting: high resistance RS-01, 40 mg fill weight.
The mark [7] stands for this setting: RS.01.HR, fill 25 mg, 15 LPM, 4 s, 0.29 J.
Setting [8] is: RS.01.HR, fill 25 mg, 20 LPM, 3 s, 0.51 J.
[9] abbreviates: RS.01.HR, fill 25 mg, 30 LPM, 2 s, 1.15 J.
Setting [10] is: RS.01.HR, fill 25 mg, 60 LPM, 2 s, 9.18 J.
[11] abbreviates: RS.01.HR, fill 40 mg, 15 LPM, 4 s, 0.29 J.
The mark [12] stands for this setting: RS.01.HR, fill 40 mg, 20 LPM, 3 s, 0.51 J.
The mark [13] stands for this setting: RS.01.HR, fill 40 mg, 30 LPM, 2 s, 1.15 J.
Setting [14] is: RS.01.HR, fill 40 mg, 60 LPM, 2 s, 9.18 J.
[15] abbreviates: RS.01.LR, fill 25 mg, 60 LPM, 2 s, 2.85 J.
Where [16] appears, read: RS.01.LR, fill 40 mg, 60 LPM, 2 s, 2.85 J.
The mark [17] stands for this setting: all measured lower energies (<9.2 Joules), 25 and 40 mg fill weights.

Some results are limits rather than exact numbers.

Turning to `[Cl-].[Cl-].[Mg+2]` [Pure magnesium chloride, magnesium chloride], the “median volume particle size” value in data set [1] (spray dried from 70% ethanol, 50 g/L) was 4 microns. Also, the “median particle size (HELOS/RODOS)” value in data set [1] (spray dried from D.I. water, 20 g/L) is 21 microns. Besides, the “fine particle fraction less than 5.6 microns” value in data set [2] turned out to be 19%.

As for `CC(C)C[C@H](N)C(=O)O` [Leucine], in data set [3], the “ΔH (kJ/mol)” value was -6 kJ/mol, the “ΔH (kcal/mol)” value is -1.5 kcal/mol, the “Q” value came to 0.37 cal and the “ΔT (deg. C)” value is recorded as 0.003 deg. C.

As to “albuterol sulfate [Micronized Albuterol 073-001-02-039A]”, the “average CEPM, share of capsule fill weight” value in data set [4] (setting [5]) was 93%; in data set [4] (setting [6]), 84%. Also, the “average Dv50” value in data set [4] (setting [5]) worked out at 1.8 μm; in data set [4] (setting [6]) it was 1.6 μm. In addition, the “Mean CEPM” value in data set [4] (setting [7]) worked out at 3.12 mg; in data set [4] (setting [8]), 5.00 mg; in data set [4] (setting [9]), 7.08 mg; in data set [4] (setting [10]) it was 23.18 mg; in data set [4] (setting [11]), 2.43 mg; in data set [4] (setting [12]), 4.97 mg. The “Mean CEPM” value in data set [4] (setting [13]) stood at 8.55 mg; in data set [4] (setting [14]), 33.40 mg; in data set [4] (setting [15]), 15.28 mg; in data set [4] (setting [16]) it was 18.88 mg. Also, the “Mean Dv50” value in data set [4] (setting [7]) is recorded as 16.76 μm; in data set [4] (setting [8]), 8.40 μm; in data set [4] (setting [9]) it was 3.86 μm; in data set [4] (setting [10]), 1.77 μm; in data set [4] (setting [11]) it was 17.63 μm; in data set [4] (setting [12]), 6.34 μm. Moreover, the “Mean Dv50” value in data set [4] (setting [13]) came out at 3.13 μm; in data set [4] (setting [14]) it was 1.60 μm; in data set [4] (setting [15]) it was 2.57 μm; in data set [4] (setting [16]) it was 2.62 μm. The “Mean FPF, % < 5 μm” value in data set [4] (setting [7]) stood at 13.00%; in data set [4] (setting [8]) it was 32.10%; in data set [4] (setting [9]), 59.44%; in data set [4] (setting [10]) it was 81.65%; in data set [4] (setting [11]), 10.73%; in data set [4] (setting [12]), 42.24%. The “Mean FPF, % < 5 μm” value in data set [4] (setting [13]) is listed as 67.18%; in data set [4] (setting [14]), 84.30%; in data set [4] (setting [15]), 75.01%; in data set [4] (setting [16]), 73.98%. Also, the CEPM entry in data set [4] (setting [17]) was “below 10 mg”. The “CEPM, share of capsule fill weight” value in data set [4] (setting [17]) was below 30%. The Dv50 is recorded as 3.9 μm in data set [4] (25 mg fill weight) and 3.1 μm in data set [4] (40 mg fill weight).

On to `O.O.[Ca+2].[Cl-].[Cl-]` [CaCl2.2H2O], for which, in data set [3], the “ΔH (kJ/mol)” value is -50.6 kJ/mol, the “ΔH (kcal/mol)” value is -12.1 kcal/mol, the “Q” value was 2.93 cal and the “ΔT (deg. C)” value is given as 0.024 deg. C.
